# The source made the active and inactive calls. The rule behind the calls is not given here.
# Experiments:
# [1] = molecular target: Dual 3',5'-cyclic-AMP and -GMP phosphodiesterase 11A (Homo sapiens, UniProt Q9HCR9); assay: Inhibition of PDE11A catalytic domain (unknown origin) using [3H]-cAMP or [3H]-[…] as substrate after 15 mins by liquid scintillation counting method
# [2] = molecular target: T1, DNA topoisomerase 1 (Homo sapiens) (UniProt P11387); assay: Inhibition of Top (unknown origin) mediated supercoiled DNA relaxation at 100 uM
# T1 sequence (whole entry): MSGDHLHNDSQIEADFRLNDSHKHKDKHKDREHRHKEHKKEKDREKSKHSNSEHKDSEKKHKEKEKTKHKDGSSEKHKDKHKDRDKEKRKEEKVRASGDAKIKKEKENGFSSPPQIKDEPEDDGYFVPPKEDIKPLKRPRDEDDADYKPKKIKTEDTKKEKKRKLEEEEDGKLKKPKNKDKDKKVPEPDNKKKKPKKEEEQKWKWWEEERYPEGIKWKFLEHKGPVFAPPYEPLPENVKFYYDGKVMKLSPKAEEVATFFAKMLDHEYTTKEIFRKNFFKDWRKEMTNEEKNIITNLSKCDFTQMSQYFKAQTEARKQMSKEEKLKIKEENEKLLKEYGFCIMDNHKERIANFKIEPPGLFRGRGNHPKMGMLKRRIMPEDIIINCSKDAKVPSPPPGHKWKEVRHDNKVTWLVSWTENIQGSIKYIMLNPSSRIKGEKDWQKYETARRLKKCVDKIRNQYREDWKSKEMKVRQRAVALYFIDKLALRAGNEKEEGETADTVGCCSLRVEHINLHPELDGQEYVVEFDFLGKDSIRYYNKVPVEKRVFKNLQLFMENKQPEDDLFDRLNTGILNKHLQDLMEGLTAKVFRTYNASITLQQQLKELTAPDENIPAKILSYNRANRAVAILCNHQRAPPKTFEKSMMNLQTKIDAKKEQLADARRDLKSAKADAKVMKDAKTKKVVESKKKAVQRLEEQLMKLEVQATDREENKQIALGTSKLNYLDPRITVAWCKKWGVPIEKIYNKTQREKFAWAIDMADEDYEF
# [3] = molecular target: cGMP-specific 3',5'-cyclic phosphodiesterase (Homo sapiens, UniProt O76074); assay: Inhibition of human PDE5A1 (535-860 residues) expressed in Escherichia coli BL21 incubated for 15 mins using [3H]-cGMP as substrate by liquid scintillation counting method
# [4] = molecular target: High affinity 3',5'-cyclic-AMP phosphodiesterase 7A (Homo sapiens, UniProt Q13946); assay: Inhibition of PDE7A1 catalytic domain (130 to 482 residues) (unknown origin) using [3H]-cAMP as substrate after 15 mins by liquid scintillation counting method
# [5] = molecular target: cAMP and cAMP-inhibited cGMP 3',5'-cyclic phosphodiesterase 10A (Homo sapiens, UniProt Q9Y233); assay: Inhibition of human PDE10A catalytic domain (449 to 770 residues) using [3H]-cAMP as substrate after 15 mins by liquid scintillation counting method
# [6] = molecular target: DNA topoisomerase 2-alpha (Homo sapiens) (UniProt P11388); assay: Inhibition of Top2 (unknown origin) mediated supercoiled DNA relaxation at 100 uM
# [7] = molecular target: Dual specificity calcium/calmodulin-dependent 3',5'-cyclic nucleotide phosphodiesterase 1B (Homo sapiens, UniProt Q01064); assay: Inhibition of human PDE1B (10-487 residues) expressed in Sf9 cells incubated for 15 mins using [3H]-cGMP as substrate by liquid scintillation counting method
# [8] = system: COc1ccc2c3c([nH]c2c1)[C@@H]1N(CC3)C(=O)c2c(OC)cccc2N1C; assay: Negative allosteric modulator activity at human PDE5A1 (535-860 residues) expressed in Escherichia coli BL21 assessed as Kcat/Km ratio for cGMP at 50 nM incubated for 15 mins using [3H]-cGMP as substrate by liquid scintillation counting method (reference value: 0.6 +/- 0.04 /s/microM); conditions: filed as negative allosteric modulator
# [9] = system: COc1ccc2c3c([nH]c2c1)[C@@H]1N(CC3)C(=O)c2c(OC)cccc2N1C; assay: Negative allosteric modulator activity at human PDE5A1 (535-860 residues) expressed in Escherichia coli BL21 assessed as Km for cGMP at 25 nM incubated for 15 mins using [3H]-cGMP as substrate by liquid scintillation counting method (reference value: 4.22 +/- 0.45 uM); conditions: filed as negative allosteric modulator
# [10] = system: COc1ccc2c3c([nH]c2c1)[C@@H]1N(CC3)C(=O)c2c(OC)cccc2N1C; assay: Negative allosteric modulator activity at human PDE5A1 (535-860 residues) expressed in Escherichia coli BL21 assessed as Kcat for cGMP at 25 nM incubated for 15 mins using [3H]-cGMP as substrate by liquid scintillation counting method (reference value: 2.53 +/- 0.24 /s); conditions: filed as negative allosteric modulator
# [11] = system: COc1ccc2c3c([nH]c2c1)[C@@H]1N(CC3)C(=O)c2c(OC)cccc2N1C; assay: Negative allosteric modulator activity at human PDE5A1 (535-860 residues) expressed in Escherichia coli BL21 assessed as Km for cGMP at 100 nM incubated for 15 mins using [3H]-cGMP as substrate by liquid scintillation counting method (reference value: 4.22 +/- 0.45 uM); conditions: filed as negative allosteric modulator
# [12] = system: COc1ccc2c3c([nH]c2c1)[C@@H]1N(CC3)C(=O)c2c(OC)cccc2N1C; assay: Negative allosteric modulator activity at human PDE5A1 (535-860 residues) expressed in Escherichia coli BL21 assessed as Km for cGMP at 50 nM incubated for 15 mins using [3H]-cGMP as substrate by liquid scintillation counting method (reference value: 4.22 +/- 0.45 uM); conditions: filed as negative allosteric modulator
# [13] = system: COc1ccc2c3c([nH]c2c1)[C@@H]1N(CC3)C(=O)c2c(OC)cccc2N1C; assay: Negative allosteric modulator activity at human PDE5A1 (535-860 residues) expressed in Escherichia coli BL21 assessed as Kcat/Km ratio for cGMP at 25 nM incubated for 15 mins using [3H]-cGMP as substrate by liquid scintillation counting method (reference value: 0.6 +/- 0.04 /s/microM); conditions: filed as negative allosteric modulator
# [14] = system: COc1ccc2c3c([nH]c2c1)[C@@H]1N(CC3)C(=O)c2c(OC)cccc2N1C; assay: Negative allosteric modulator activity at human PDE5A1 (535-860 residues) expressed in Escherichia coli BL21 assessed as Kcat/Km ratio for cGMP at 100 nM incubated for 15 mins using [3H]-cGMP as substrate by liquid scintillation counting method (reference value: 0.6 +/- 0.04 /s/microM); conditions: filed as negative allosteric modulator
# [15] = system: COc1ccc2c3c([nH]c2c1)[C@@H]1N(CC3)C(=O)c2c(OC)cccc2N1C; assay: Negative allosteric modulator activity at human PDE5A1 (535-860 residues) expressed in Escherichia coli BL21 assessed as Kcat/Km ratio for cGMP at 200 nM incubated for 15 mins using [3H]-cGMP as substrate by liquid scintillation counting method (reference value: 0.6 +/- 0.04 /s/microM); conditions: filed as negative allosteric modulator
# [16] = system: COc1ccc2c3c([nH]c2c1)[C@@H]1N(CC3)C(=O)c2c(OC)cccc2N1C; assay: Negative allosteric modulator activity at human PDE5A1 (535-860 residues) expressed in Escherichia coli BL21 assessed as Km for cGMP at 200 nM incubated for 15 mins using [3H]-cGMP as substrate by liquid scintillation counting method (reference value: 4.22 +/- 0.45 uM); conditions: filed as negative allosteric modulator
# [17] = system: COc1ccc2c3c([nH]c2c1)[C@@H]1N(CC3)C(=O)c2c(OC)cccc2N1C; assay: Negative allosteric modulator activity at human PDE5A1 (535-860 residues) expressed in Escherichia coli BL21 assessed as Kcat for cGMP at 200 nM incubated for 15 mins using [3H]-cGMP as substrate by liquid scintillation counting method (reference value: 2.53 +/- 0.24 /s); conditions: filed as negative allosteric modulator
# [18] = system: COc1ccc2c3c([nH]c2c1)[C@@H]1N(CC3)C(=O)c2c(OC)cccc2N1C; assay: Negative allosteric modulator activity at human PDE5A1 (535-860 residues) expressed in Escherichia coli BL21 assessed as Kcat for cGMP at 50 nM incubated for 15 mins using [3H]-cGMP as substrate by liquid scintillation counting method (reference value: 2.53 +/- 0.24 /s); conditions: filed as negative allosteric modulator
# [19] = system: COc1ccc2c3c([nH]c2c1)[C@@H]1N(CC3)C(=O)c2c(OC)cccc2N1C; assay: Negative allosteric modulator activity at human PDE5A1 (535-860 residues) expressed in Escherichia coli BL21 assessed as Kcat for cGMP at 100 nM incubated for 15 mins using [3H]-cGMP as substrate by liquid scintillation counting method (reference value: 2.53 +/- 0.24 /s); conditions: filed as negative allosteric modulator
# [20] = species on record: Homo sapiens; assay: Selectivity index, ratio of IC50 for human PDE6C to IC50 for human PDE5A1
# [21] = Inhibition of human PDE5A1 D563A mutant expressed in Escherichia coli BL21 incubated for 15 mins using [3H]-cGMP as substrate by liquid scintillation counting method
# Sequence of cAMP and cAMP-inhibited cGMP 3',5'-cyclic phosphodiesterase 10A (Q9Y233 whole entry, the tested form may be a part): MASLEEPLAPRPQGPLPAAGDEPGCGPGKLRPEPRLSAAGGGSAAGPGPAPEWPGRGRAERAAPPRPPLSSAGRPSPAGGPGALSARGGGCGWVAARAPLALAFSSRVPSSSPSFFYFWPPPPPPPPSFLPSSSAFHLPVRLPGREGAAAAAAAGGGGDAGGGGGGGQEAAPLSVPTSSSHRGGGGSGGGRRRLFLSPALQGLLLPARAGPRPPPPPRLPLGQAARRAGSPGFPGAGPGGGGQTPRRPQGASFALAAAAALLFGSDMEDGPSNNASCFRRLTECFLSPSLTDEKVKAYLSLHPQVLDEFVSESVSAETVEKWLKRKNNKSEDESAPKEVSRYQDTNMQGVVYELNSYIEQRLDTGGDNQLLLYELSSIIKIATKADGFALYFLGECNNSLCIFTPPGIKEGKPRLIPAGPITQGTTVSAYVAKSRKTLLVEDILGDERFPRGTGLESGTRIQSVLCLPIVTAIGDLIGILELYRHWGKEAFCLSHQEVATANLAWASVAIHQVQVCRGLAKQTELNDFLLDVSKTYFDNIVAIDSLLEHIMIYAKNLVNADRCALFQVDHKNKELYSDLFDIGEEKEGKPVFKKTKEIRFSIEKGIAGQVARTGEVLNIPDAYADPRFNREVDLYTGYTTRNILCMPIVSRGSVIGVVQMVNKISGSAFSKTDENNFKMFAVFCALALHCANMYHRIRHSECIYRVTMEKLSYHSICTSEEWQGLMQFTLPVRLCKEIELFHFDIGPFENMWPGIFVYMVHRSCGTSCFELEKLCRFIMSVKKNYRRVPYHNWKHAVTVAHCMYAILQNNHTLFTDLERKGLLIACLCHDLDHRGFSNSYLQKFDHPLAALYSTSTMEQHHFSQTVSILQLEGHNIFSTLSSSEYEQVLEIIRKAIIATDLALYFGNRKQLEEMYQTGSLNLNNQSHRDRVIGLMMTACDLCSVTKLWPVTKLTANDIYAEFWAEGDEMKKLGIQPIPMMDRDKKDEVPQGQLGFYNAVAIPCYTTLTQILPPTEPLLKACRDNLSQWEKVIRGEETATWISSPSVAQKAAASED
# Sequence of Dual 3',5'-cyclic-AMP and -GMP phosphodiesterase 11A (Q9HCR9 whole entry, the tested form may be a part): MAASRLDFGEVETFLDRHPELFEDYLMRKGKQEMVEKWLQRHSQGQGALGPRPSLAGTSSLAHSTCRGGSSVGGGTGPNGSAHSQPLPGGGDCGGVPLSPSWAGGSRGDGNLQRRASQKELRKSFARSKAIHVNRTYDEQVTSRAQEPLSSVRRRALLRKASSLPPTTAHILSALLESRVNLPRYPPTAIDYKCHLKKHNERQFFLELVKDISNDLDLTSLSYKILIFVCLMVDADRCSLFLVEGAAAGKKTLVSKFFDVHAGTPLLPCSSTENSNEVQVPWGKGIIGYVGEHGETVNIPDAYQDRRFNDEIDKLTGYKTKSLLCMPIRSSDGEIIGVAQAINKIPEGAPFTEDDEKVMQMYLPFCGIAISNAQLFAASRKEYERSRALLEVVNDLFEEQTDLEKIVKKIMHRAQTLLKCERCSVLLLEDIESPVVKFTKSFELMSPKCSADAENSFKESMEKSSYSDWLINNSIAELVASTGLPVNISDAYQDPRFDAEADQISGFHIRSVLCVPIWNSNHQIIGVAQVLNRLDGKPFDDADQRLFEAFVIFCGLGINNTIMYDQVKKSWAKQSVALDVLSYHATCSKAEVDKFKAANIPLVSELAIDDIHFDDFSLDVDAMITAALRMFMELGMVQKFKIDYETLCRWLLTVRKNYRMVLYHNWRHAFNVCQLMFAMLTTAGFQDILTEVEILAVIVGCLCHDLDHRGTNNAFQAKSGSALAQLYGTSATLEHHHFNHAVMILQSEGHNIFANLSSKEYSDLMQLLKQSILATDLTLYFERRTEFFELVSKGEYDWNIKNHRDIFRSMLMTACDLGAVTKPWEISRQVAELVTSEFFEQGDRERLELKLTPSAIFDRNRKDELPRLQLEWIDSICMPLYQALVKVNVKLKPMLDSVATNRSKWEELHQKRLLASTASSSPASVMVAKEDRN
# Sequence of DNA topoisomerase 2-alpha (Homo sapiens) (P11388 whole entry, the tested form may be a part): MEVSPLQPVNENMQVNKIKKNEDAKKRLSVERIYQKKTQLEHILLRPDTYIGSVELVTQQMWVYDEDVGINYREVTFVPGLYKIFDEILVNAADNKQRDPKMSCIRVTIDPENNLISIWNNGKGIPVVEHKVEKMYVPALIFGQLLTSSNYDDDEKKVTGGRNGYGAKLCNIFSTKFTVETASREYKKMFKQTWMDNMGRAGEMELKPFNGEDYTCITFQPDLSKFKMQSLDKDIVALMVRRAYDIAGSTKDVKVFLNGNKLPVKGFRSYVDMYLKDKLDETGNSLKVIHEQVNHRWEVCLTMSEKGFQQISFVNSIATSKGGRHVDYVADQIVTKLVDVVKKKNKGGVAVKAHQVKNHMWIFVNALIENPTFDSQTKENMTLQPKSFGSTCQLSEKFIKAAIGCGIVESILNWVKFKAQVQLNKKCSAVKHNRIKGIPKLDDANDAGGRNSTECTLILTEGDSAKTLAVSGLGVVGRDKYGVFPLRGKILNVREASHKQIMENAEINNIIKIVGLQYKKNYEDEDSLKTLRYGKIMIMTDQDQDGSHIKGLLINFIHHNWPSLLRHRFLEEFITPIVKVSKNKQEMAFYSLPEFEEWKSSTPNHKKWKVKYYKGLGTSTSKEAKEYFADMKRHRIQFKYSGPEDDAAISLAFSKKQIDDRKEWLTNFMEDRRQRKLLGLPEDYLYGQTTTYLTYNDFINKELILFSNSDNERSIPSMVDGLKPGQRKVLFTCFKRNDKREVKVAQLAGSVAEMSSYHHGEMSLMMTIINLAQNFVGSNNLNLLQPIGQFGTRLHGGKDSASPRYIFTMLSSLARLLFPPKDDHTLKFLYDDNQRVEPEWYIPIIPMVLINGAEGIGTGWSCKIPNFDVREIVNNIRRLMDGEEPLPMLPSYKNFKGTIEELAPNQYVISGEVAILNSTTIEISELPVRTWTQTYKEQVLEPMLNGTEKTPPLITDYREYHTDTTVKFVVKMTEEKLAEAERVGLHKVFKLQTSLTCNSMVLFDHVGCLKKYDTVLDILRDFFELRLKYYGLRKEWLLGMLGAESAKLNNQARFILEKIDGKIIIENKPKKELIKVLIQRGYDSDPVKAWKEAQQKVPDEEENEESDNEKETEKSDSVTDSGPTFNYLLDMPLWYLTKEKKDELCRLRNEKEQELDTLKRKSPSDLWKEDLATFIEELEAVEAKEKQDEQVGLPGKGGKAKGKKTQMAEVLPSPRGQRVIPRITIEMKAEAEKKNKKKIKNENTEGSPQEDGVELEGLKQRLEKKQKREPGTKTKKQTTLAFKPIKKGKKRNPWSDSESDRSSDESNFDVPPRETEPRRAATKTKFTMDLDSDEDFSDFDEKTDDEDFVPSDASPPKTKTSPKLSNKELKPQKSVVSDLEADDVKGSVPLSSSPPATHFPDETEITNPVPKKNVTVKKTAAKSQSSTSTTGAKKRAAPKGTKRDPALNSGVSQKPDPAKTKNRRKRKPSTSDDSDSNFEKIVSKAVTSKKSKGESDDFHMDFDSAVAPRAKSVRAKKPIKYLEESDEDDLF
# Sequence of Dual specificity calcium/calmodulin-dependent 3',5'-cyclic nucleotide phosphodiesterase 1B (Q01064 whole entry, the tested form may be a part): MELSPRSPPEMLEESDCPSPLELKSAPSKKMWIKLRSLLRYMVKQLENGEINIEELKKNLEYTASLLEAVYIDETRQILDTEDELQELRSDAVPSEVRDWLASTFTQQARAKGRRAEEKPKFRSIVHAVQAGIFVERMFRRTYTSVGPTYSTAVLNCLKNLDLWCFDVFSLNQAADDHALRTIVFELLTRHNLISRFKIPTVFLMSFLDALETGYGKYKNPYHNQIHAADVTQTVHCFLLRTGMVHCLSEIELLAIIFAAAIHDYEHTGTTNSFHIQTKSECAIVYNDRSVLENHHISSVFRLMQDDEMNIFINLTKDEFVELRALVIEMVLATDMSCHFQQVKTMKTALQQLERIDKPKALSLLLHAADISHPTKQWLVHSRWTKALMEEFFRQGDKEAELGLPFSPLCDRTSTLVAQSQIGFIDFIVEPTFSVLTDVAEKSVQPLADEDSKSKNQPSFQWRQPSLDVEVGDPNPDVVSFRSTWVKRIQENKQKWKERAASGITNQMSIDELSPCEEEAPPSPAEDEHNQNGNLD
# Sequence of High affinity 3',5'-cyclic-AMP phosphodiesterase 7A (Q13946 whole entry, the tested form may be a part): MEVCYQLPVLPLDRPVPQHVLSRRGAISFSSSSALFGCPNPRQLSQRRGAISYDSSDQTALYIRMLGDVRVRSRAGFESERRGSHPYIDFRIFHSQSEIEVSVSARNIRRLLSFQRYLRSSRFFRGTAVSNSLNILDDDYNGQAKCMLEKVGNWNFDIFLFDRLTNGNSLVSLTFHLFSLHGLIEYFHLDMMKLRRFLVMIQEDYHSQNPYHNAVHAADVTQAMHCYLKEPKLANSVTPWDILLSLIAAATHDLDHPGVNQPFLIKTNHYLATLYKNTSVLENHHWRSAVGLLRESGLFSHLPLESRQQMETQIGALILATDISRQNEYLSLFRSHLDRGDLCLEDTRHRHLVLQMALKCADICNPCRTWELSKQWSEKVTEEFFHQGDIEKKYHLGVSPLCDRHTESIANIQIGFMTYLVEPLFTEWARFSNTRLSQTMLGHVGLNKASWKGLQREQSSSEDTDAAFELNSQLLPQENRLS
compound,measurement,setting,value
COc1cccc2c1C(=O)N1CCc3c([nH]c4cccc(OC)c34)[C@H]1N2C,IC50,[1],> 20000 nM
same,inhibition,[2],inactive
same,IC50,[3],35 nM
same,IC50,[4],> 20000 nM
same,IC50,[5],2200 nM
same,inhibition,[6],inactive
same,IC50,[7],> 20000 nM
"cGMP-specific 3',5'-cyclic phosphodiesterase (Homo sapiens) (from UniProt O76074)",kcat/Km,[8],130000 M⁻¹ s⁻¹
same,Km,[9],11.8 µM
same,kcat,[10],1.99 s⁻¹
same,Km,[11],13.2 µM
same,Km,[12],11.8 µM
same,kcat/Km,[13],170000 M⁻¹ s⁻¹
same,kcat/Km,[14],110000 M⁻¹ s⁻¹
same,kcat/Km,[15],84000 M⁻¹ s⁻¹
same,Km,[16],12.5 µM
same,kcat,[17],1.05 s⁻¹
same,kcat,[18],1.51 s⁻¹
same,kcat,[19],1.48 s⁻¹
COc1ccc2c3c([nH]c2c1)[C@H]1N(CC3)C(=O)c2c(OC)cccc2N1C,IC50,[3],> 10000 nM
CN1c2cccc(O)c2C(=O)N2CCc3c([nH]c4ccccc34)[C@H]21,IC50,[3],420 nM
COc1cccc2c1C(=O)N1CCc3c([nH]c4ccccc34)C1N2C (stereo not drawn),IC50,[3],340 nM
same,Ratio IC50,[20],> 64
CN1c2ccccc2C(=O)N2CCc3c([nH]c4ccccc34)C21 (stereo not drawn),IC50,[3],2100 nM
COc1ccc2c3c([nH]c2c1)C1N(CC3)C(=O)c2c(OC)cccc2N1C (stereo not drawn),IC50,[3],53 nM
CN1c2cccc(O)c2C(=O)N2CCc3c([nH]c4ccccc34)C21 (stereo not drawn),IC50,[3],1700 nM
CN1c2cccc(O)c2C(=O)N2CCc3c([nH]c4ccccc34)[C@@H]21,IC50,[3],> 10000 nM
CN1c2ccccc2C(=O)N2CCc3c([nH]c4ccccc34)[C@H]21,IC50,[3],1300 nM
COc1cccc2c1C(=O)N1CCc3c([nH]c4ccccc34)[C@H]1N2C,IC50,[3],110 nM
same,Ratio IC50,[20],> 190
COc1cccc2c1C(=O)N1CCc3c([nH]c4ccccc34)[C@@H]1N2C,IC50,[3],2600 nM
CN1c2ccccc2C(=O)N2CCc3c([nH]c4ccccc34)[C@@H]21 [EVODIAMINE],IC50,[3],> 50000 nM
CCCc1nn(C)c2c(=O)[nH]c(-c3cc(S(=O)(=O)N4CCN(C)CC4)ccc3OCC)nc12,IC50,[21],1.2 nM

# — ChEMBL document CHEMBL4725363 (J Med Chem, 2020)
